In patent US6410740B1, “Heterocyclylmethyl-substituted pyrazol derivatives” (Bayer Aktiengesellschaft, priority 1996, dated 2002):
Like-named read-outs stand apart in the source and are kept apart here.

Columns and labels:
[1] = biological target: T1, soluble guanylate cyclase (Sus scrofa, UniProt A0A4X1U7N1+A0ACM8Q7I6); assay: Stimulation of soluble guanylate cyclase in primary endothelial cells (intracellular cGMP, radioimmunological); assay type: cell-based; conditions: test substance 1 μM, 10-minute incubation, primary pig aortic endothelial cells, with or without SNP 1 μM (not stated which); for activation at 1 µM: 10 min, read-out: % increase in cGMP
T1 construct: endogenous in cells; host or cells: primary endothelial cells from pig aorta
T1 sequence (A0A4X1U7N1 1-619): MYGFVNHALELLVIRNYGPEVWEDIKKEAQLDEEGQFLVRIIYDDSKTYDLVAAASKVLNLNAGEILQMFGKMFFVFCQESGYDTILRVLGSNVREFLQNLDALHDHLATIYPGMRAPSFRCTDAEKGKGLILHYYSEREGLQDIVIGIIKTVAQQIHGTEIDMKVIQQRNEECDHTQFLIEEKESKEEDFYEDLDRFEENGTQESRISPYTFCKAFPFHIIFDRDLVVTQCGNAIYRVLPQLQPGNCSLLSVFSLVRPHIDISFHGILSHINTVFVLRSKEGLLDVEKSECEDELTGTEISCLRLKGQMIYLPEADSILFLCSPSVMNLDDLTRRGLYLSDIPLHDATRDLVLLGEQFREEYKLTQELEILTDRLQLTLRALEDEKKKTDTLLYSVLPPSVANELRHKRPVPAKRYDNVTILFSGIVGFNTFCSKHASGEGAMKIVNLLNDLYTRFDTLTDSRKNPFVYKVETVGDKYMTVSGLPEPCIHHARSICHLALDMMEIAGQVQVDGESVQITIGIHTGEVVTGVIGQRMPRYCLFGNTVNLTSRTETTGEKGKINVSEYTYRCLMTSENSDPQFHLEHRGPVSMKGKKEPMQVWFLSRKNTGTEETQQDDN
T1 sequence (A0ACM8Q7I6 1-688): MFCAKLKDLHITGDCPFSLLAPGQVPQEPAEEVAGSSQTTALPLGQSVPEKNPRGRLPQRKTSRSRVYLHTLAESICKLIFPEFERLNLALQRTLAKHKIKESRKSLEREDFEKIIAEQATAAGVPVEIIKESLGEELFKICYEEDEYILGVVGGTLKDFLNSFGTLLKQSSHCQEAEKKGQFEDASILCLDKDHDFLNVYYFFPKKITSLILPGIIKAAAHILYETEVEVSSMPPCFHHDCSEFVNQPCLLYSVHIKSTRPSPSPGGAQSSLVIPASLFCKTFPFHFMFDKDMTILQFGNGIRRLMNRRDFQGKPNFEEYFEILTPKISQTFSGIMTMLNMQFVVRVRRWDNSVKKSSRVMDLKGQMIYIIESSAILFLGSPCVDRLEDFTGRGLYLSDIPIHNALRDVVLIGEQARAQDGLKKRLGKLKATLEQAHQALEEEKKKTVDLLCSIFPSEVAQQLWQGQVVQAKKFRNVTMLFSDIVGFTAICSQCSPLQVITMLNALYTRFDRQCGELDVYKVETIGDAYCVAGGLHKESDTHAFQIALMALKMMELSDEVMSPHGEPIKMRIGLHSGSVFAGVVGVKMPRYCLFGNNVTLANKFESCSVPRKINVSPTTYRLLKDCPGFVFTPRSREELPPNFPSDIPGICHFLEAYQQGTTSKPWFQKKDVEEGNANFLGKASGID
Description: Stimulation of Soluble Guanylate Cyclase in Primary Endothelial Cells
(§1) Primary endothelial cells were isolated from pig aortas by treatment with collagenase solution. The cells were then cultured in a culture medium until confluence was reached. For the investigations, the cells were subjected to passaging, sown in cell culture plates and subcultured until confluence was reached. To stimulate the endothelial guanylate cyclase, the culture medium was suctioned off and the cells were washed once with Ringer's solution and incubated in stimulation buffer with or without an NO donor (sodium nitroprusside, SNP, 1 μM). Thereafter, the test substances (final concentration 1 μM) were pipetted onto the cells. At the end of the 10-minute incubation period, the buffered solution was suctioned off and the cells were lysed at −20° C. for 16 hours. The intracellular cGMP was then determined radioimmunologically.
as §1, with “sucked” for “suctioned”
as §1, with “without” for “without an”, “buffer” for “buffered”

[2] = test system: rabbit aortic rings precontracted with phenylephrine; assay: Vessel-relaxing action in vitro on isolated aortic rings precontracted with phenylephrine; conditions: rabbit aorta rings, phenylephrine contraction
Description: Vessel-relaxing Action in vitro
Rings 1.5 mm wide of an aorta isolated from a rabbit are introduced individually, under pretension, in 5 ml organ baths with Krebs-Henseleit solution warmed to 37° C. and gassed with carbogen. The contraction force is amplified and digitalized and recorded in parallel on a line recorder. To generate a contraction, phenylephrine is added cumulatively to the bath in an increasing concentration.
(§2) After several control cycles, the substance to be investigated is investigated in each further pass in each case in an increasing dosage, and a comparison is made with the level of the contraction achieved in the last preliminary pass. The concentration necessary to reduce the level of the control value by 50% (IC50) is calculated from this. The standard application volume is 5 μl.
as §2, with “this.” for “this. The standard application volume is 5 μl.”
The standard application volume is 5 μl.

[3] = Oryctolagus cuniculus, embodiment II
[4] = Oryctolagus cuniculus, embodiment III
[5] = Oryctolagus cuniculus, iv, embodiment IV

| Structure (SMILES) | activation at 1 µM ([1]; embodiment II) [%] | IC50 [2, 3] [µM] | also measured |
| --- | --- | --- | --- |
| OCc1cccc(-c2nn(Cc3ccccc3)c3ccccc23)n1 [II-36, 1-Benzyl-3-(6-hydroxymethyl-2-pyridyl)indazole] | 225 | 13 | – |
| Cc1cnc(-c2nn(Cc3ccccc3)c3ccccc23)nc1C [II-38, 1-Benzyl-3-(4,5-dimethyl-2-pyrimidyl)indazole] | > 1000 | 11 | – |
| c1ccc(Cn2nc(-c3ncccn3)c3ccccc32)cc1 [II-39] | 909 | 11 | – |
| Fc1ccccc1Cn1nc(-c2ncccn2)c2ccccc21 [II-40] | > 1000 | 24 | – |
| N#Cc1ccccc1Cn1nc(-c2ncccn2)c2ccccc21 [II-41] | 557 | 13 | – |
| Cc1ccnc(-c2nn(Cc3ccccc3)c3ccccc23)n1 [II-42] | 611 | 10 | – |
| Cc1cnc(-c2nn(Cc3ccccc3F)c3ccccc23)nc1C [II-43] | > 1000 | – | – |
| Cc1cnc(-c2nn(Cc3ccccc3C#N)c3ccccc23)nc1C [II-44] | > 1000 | – | – |
| CCOC(OCC)c1nc(-c2nn(Cc3ccccc3)c3ccccc23)ncc1C [II-45] | 326 | – | – |
| Cc1nc(-c2nn(Cc3ccccc3)c3ccccc23)nc(C)c1C [II-46] | 390 | – | – |
| Cc1nc(-c2nn(Cc3ccccc3)c3ccccc23)nc(C)c1Cl [II-47] | 240 | – | – |
| CNc1nc(-c2nn(Cc3ccccc3)c3ccccc23)ncc1Cl [II-48] | > 1000 | 13 | – |
| N#Cc1cnc(-c2nn(Cc3ccccc3)c3ccccc23)nc1N [II-49] | > 1000 | 65 | – |
| Clc1nccc(-c2nn(Cc3ccccc3)c3ccccc23)n1 [II-50] | 116 | > 31 | – |
| Cc1cc(-c2nn(Cc3ccccc3)c3ccccc23)nc(Cl)n1 [II-51] | – | > 30 | – |
| OCCNc1nccc(-c2nn(Cc3ccccc3)c3ccccc23)n1 [II-52] | 397 | 14 | – |
| Nc1nccc(-c2nn(Cc3ccccc3)c3ccccc23)n1 [II-53] | 428 | 18 | – |
| c1ccc(Cn2nc(-c3cnccn3)c3ccccc32)cc1 [II-55] | – | > 35 | – |
| Cc1cncc(-c2nn(Cc3ccccc3)c3ccccc23)n1 [II-56] | 233 | > 33 | – |
| c1ccc(Cn2nc(-c3ccccn3)c3ccccc32)cc1 [II-58] | 271 | – | – |
| Cc1cccc(-c2nn(Cc3ccccc3)c3ccccc23)n1 [II-59] | 268 | > 33 | – |
| Cc1cc(C)c(C#N)c(-c2nn(Cc3ccccc3)c3ccccc23)n1 [II-60] | – | > 30 | – |
| Cc1cc(Cl)cc(-c2nn(Cc3ccccc3)c3ccccc23)n1 [II-61] | – | > 30 | – |

| Structure (SMILES) | activation at 1 µM ([1]; embodiment II) [%] | IC50 [2, 3] [µM] | also measured |
| --- | --- | --- | --- |
| Cc1nc(-c2nn(Cc3ccccc3)c3ccccc23)oc1CO [III-75] | – | – | activation at 1 µM ([1]; embodiment III): > 1000%; IC50 [2, 4]: 2.2 µM |
| OCc1nnc(-c2nn(Cc3ccccc3F)c3ccccc23)o1 [III-76] | – | – | % increase in cGMP ([1]; embodiment III): 397%; IC50 ([2]; embodiment III): 7.4 µM |
| CC(=O)OCc1oc(-c2nn(Cc3ccccc3)c3ccccc23)nc1C [III-77] | – | – | activation at 1 µM ([1]; embodiment III): > 1000%; IC50 [2, 4]: 8.3 µM |
| CC(=O)OCc1nnc(-c2nn(Cc3ccccc3F)c3ccccc23)o1 [III-78] | – | – | activation at 1 µM ([1]; embodiment III): 223%; IC50 [2, 4]: 10 µM |
| OCc1nnc(-c2nn(Cc3ccccc3F)c3ccccc23)o1 [III-79] | – | – | % increase in cGMP ([1]; embodiment III): 124%; IC50 [2, 4]: 13 µM |
| Cc1coc(-c2nn(Cc3ccccc3F)c3ccccc23)n1 [III-80] | – | – | activation at 1 µM ([1]; embodiment III): > 1000%; IC50 [2, 4]: 3.6 µM |
| OCc1nnc(-c2nn(Cc3ccccc3)c3ccccc23)o1 [III-81] | – | – | activation at 1 µM ([1]; embodiment III): 110%; IC50 [2, 4]: 12 µM |
| OCc1csc(-c2nn(Cc3ccccc3)c3ccccc23)n1 [III-82] | – | – | activation at 1 µM ([1]; embodiment III): 455%; IC50 [2, 4]: 15 µM |
| c1ccc(Cn2nc(-c3ncco3)c3ccccc32)cc1 [III-87] | – | – | activation at 1 µM ([1]; embodiment III): 268%; IC50 [2, 4]: 19 µM |
| CCc1coc(-c2nn(Cc3ccccc3)c3ccccc23)n1 [III-88] | – | – | IC50 [2, 4]: 7.1 µM |
| COCc1oc(-c2nn(Cc3ccccc3)c3ccccc23)nc1C [III-90] | – | – | IC50 [2, 4]: 4.1 µM |
| CCOCc1oc(-c2nn(Cc3ccccc3)c3ccccc23)nc1C [III-91] | – | – | activation at 1 µM ([1]; embodiment III): 479% |
| OCc1cnc(-c2nn(Cc3ccccc3)c3ccccc23)s1 [III-92] | – | – | activation at 1 µM ([1]; embodiment III): 319% |
| CCOC(=O)c1coc(-c2nn(Cc3ccccc3)c3ccccc23)n1 [III-93] | – | – | activation at 1 µM ([1]; embodiment III): 271% |
| OCc1cnc(-c2nn(Cc3ccccc3F)c3ccccc23)s1 [III-95] | – | – | IC50 [2, 4]: 2.4 µM |
| O=Cc1ccc(-c2nn(Cc3ccccc3)c3ccccc23)o1 [IV-138, 1-Benzyl-3-(5-formylfuran-2-yl)-indazole] | – | – | activation at 1 µM ([1]; embodiment IV): 324% |
| CC(O)c1ccc(-c2nn(Cc3ccccc3)c3ccccc23)o1 (centres unmarked) [IV-139, 1-[5-(1-Benzylindazol-3-yl)-furan-2-yl]-ethanol] | – | – | activation at 1 µM ([1]; embodiment IV): 723%; IC50 [2, 5]: 12 µM |
| CC(=O)c1ccc(-c2nn(Cc3ccccc3)c3ccccc23)o1 [IV-140, 3-(5-Acetylfuran-2-yl)-1-benzyl-indazole] | – | – | activation at 1 µM ([1]; embodiment IV): 619%; IC50 [2, 5]: 12 to 17 µM |
| O=[N+]([O-])c1ccc(-c2nn(Cc3ccccc3)c3ccccc23)o1 [IV-143, 1-Benzyl-3-(5-nitrofuran-2-yl)-indazole] | – | – | activation at 1 µM ([1]; embodiment IV): > 1000% |
| O=Cc1ccc(-c2nn(Cc3ccc(F)cc3)c3ccccc23)o1 [IV-148] | – | – | activation at 1 µM ([1]; embodiment IV): 978%; IC50 [2, 5]: 6.7 µM |
| O/N=C/c1ccc(-c2nn(Cc3ccccc3)c3ccccc23)o1 [IV-153] | – | – | activation at 1 µM ([1]; embodiment IV): 341%; IC50 [2, 5]: 9.1 µM |
| N#Cc1cccc(Cn2nc(-c3ccc(CO)o3)c3ccccc32)c1 [IV-166] | – | – | IC50 [2, 5]: 18 µM |
